Assay results: patent US20260294305A1, “METHOD FOR EX VIVO MEASURING GLOMERULAR FILTRATION RATE IN A SUBJECT” (Assistance Publique - Hôpitaux de Paris, priority 2023, published 2026)
Several values for one entry are separate records, joined by “and”; a condition that tells them apart may be missing. Equal values may be shown once.

Legend:
[1] = after a bolus injection; cited from earlier work
[2] = GFR measurement with iomeprol clearance assessed by CT urography (CT-mGFR), living kidney donor candidates; format: in vivo
Procedure: This is a cross-sectional study using data from kidney donor candidates who were screened in hospital between July 2016 and October 2022, with both GFR measurement by iohexol clearance, and kidney morphology assessment by CT urogaphy.
(§1) All living kidney donor candidates investigated in Nephrology Department between July 2016 and October 2022, were eligible for inclusion. In accordance with the KDIGO guidelines (Lentine K L et al. ([11])), GFR was measured in all these individuals from iohexol clearance. […] The CT urography had to include 4 polychromatic acquisition phases (unenhanced, arterial, nephrographic, and excretory phases) with a monophasic injection of iomeprol at 350 or 400 mg of iodine per milliliter (Iomeron® 350 or 400, Bracco Imaging, Milano, Italy).
CT-mGFR was assessed by the same U×V/P calculation used to determine the urinary clearance of iohexol: the amount of iomeprol excreted through the urinary system during a given period of time was divided by the mean serum iomeprol concentration during the same period. The blood and urine concentration of iomeprol were assessed by attenuation measurement (Hounsfield Units, HU) in the different areas of interest. The time periods were derived from the acquisition time of the different phases. […] Manual segmentations of bladder, upper urinary tracts and kidneys were performed using the Advantage Windows software (Advantage Window v4.7; GE Healthcare, Buc, France), using different thresholds depending on the CT phase and then manually finalized. For non-contrast and portal venous phase: only a lower limit was set to 0 HU, in order to exclude fat pixels. For excretory phases: a specific threshold was adapted for each patient based on visual analysis in order to reduce extra-urinary pixels as much as possible. Also, the lower threshold used for upper excretory tract was used as the higher threshold for kidney segmentation to avoid overlap in segmentations. The urinary excretion rate of iomeprol between arterial and excretory phases (U×V, expressed as HU/min) was calculated from urinary excretion of iomeprol into the bladder (Uexcr-Bladder), urinary excretion of iomeprol into the upper excretory tract (calyces, pelvis, ureters) (Uexcr-tract), and urinary excretion of iomeprol into the kidney tubules (Uexcr-tubules): U×V=Uexcr-Bladder+Uexcr-tract+Uexcr-tubules. Uexcr-bladder was the volume of the bladder at the excretory phase (Bladder-Volume) multiplied by the mean CT-attenuation of the bladder at the excretory phase (HU-Bladder-excr) minus the CT-attenuation of the urine in bladder at the unenhanced phase (HU-Bladder-unenhanced), then divided by the time period between the excretory phase and the arterial phase (time period): Uexcr-Bladder=Bladder-volume×(HU-Bladder-excr−HU-Bladder-unenhanced)/time period. When the bladder was not included on the unenhanced phase, urine CT-attenuation could be measured on the nephrographic phase, the urine density at the nephrographic phase being slightly higher than at the unenhanced phase, but without clinical consequence on the CT-mGFR calculation. Uexcr-tract was determined in the same way by studying the upper excretory tract (calyces, pelvis, ureters) instead of the bladder. Uexcr-tubules was the volume of both kidneys (Kidney-volumes) multiplied by mean CT-attenuation of kidneys at the excretory phase (HU-Kidney-excr) minus mean CT-attenuation of kidneys at the unenhanced phase (HU-Kidney-unenhanced), then divided by time period: Uexcr-tubules=Kidney-volumes×(HU-Kidney-excr-HU-Kidney-unenhanced)/time period. The denominator of the U×V/P equation, was the calculated serum iomeprol concentration at the midpoint of the period between the arterial and excretory phases. At each phase, the difference between the CT attenuation of the aorta and the one at the unenhanced phase was the surrogate for the serum iomeprol concentration. […]

plasma proteins = settings: cited from earlier work
[3] = cited from earlier work
[4] = more specifically by glomerular filtration; cited from earlier work
[5] = GFR measurement with iohexol clearance (mGFR), living kidney donor candidates; format: in vivo
Procedure: as §1
(§2) After a 5 mL bolus injection of iohexol (300 mg/L Omnipaque®; GE Healthcare, France), and an equilibration period (time the tracer takes to distribute in the extracellular compartment), blood and urine samples were collected over four to six consecutive clearance periods. We performed six 30-min periods after a 90-min equilibration period until July 2019, then four 40-min periods after a 120-min equilibration. The concentrations of iohexol in serum and urine were determined by high-performance liquid chromatography (HPLC) as previously described (Cavalier E et al. ([12])). Measured GFR (mGFR) was the mean of the four to six clearance-period values calculated as follows: U×V/P, where U is the concentration of iohexol in the urine collected during the period, V is the urinary flow rate during the period, and P is the serum concentration of iohexol at mid period. Given the negative bias of this GFR measurement method (Seegmiller J C et al. ([13]), Stehlé T et al. ([14])), the following correction was used: mGFR=1.15×iohexol urinary clearance+1.3 (Stehlé T et al. ([14])). If voiding was irregular or incomplete or in case of urine loss, mGFR was calculated with iohexol plasma clearance determined from the plasma disappearance curve, with Bröchner-Mortensen correction model for the missing early compartment (Bröchner-Mortensen J. A ([15])).

[6] = GFR measurement with iohexol clearance, chronic kidney disease patients; format: in vivo; settings: mean ± SD, 28 CKD patients
Procedure: as §2, with “Given the negative bias of this GFR measurement method (Seegmiller J C et al. ([13]), Stehlé T et al. ([14])), the following correction was used: mGFR=1.15×iohexol urinary clearance+1.3 (Stehlé T et al. ([14])).” left out, “([15])). […]” for “([15])).”
Iohexol clearance was measured as previously described in the example 1.

CN(C(=O)CO)c1c(I)c(C(=O)NCC(O)CO)c(I)c(C(=O)NCC(O)CO)c1I (stereo not shown) [iomeprol]
Correlation between its clearance and that of inulin [1]: very good correlation
Extra-renal clearance [1]: negligible
Plasma concentration decline [1]: declined biexponentially
Serum iomeprol concentrations assessed at the arterial phase ([2]; example patient, 0 min, aorta attenuation minus unenhanced): 210.2 HU
Serum iomeprol concentrations assessed at the nephrographic phase ([2]; example patient, 0.77 min, aorta attenuation minus unenhanced): 88.3 HU
Serum iomeprol concentrations assessed at the excretory phase ([2]; example patient, 9.47 min, aorta attenuation minus unenhanced): 46.8 HU
Ln (iomeprol mid-period) ([2]; example patient, mid-period between arterial and excretory phases): 4.396
CT-mGFR, maximum ([2]; max): 174.0 ml/min/1.73 m^2
Mean CT-mGFR (iomeprol clearance assessed by CT urography) ([2]; mean ± SD, n=75 living kidney donor candidates): 100.9±19.5 ml/min/1.73 m^2
CT-mGFR, minimum ([2]; min): 60.8 ml/min/1.73 m^2
Plasma protein binding (plasma proteins): does not bind measurably to plasma proteins
Water solubility [3]: hydrosoluble

CN(CC(O)CO)C(=O)c1c(I)c(NC(=O)C(CO)CO)c(I)c(C(=O)N(C)CC(O)CO)c1I (stereo not shown) [iobitridol]
Route of elimination [4]: eliminated almost exclusively by the urinary excretion

CC(=O)N(CC(O)CN(C(C)=O)c1c(I)c(C(=O)NCC(O)CO)c(I)c(C(=O)NCC(O)CO)c1I)c1c(I)c(C(=O)NCC(O)CO)c(I)c(C(=O)NCC(O)CO)c1I (stereo not shown) [iodixanol]
Route of elimination [4]: eliminated almost exclusively by the urinary excretion

CC(=O)N(CC(O)CO)c1c(I)c(C(=O)NCC(O)CO)c(I)c(C(=O)NCC(O)CO)c1I (stereo not shown) [iohexol]
mGFR (iohexol clearance), maximum ([5]; max): 140.2 ml/min/1.73 m^2
mGFR (iohexol clearance) ([5]; mean ± SD, mGFR=1.15×iohexol urinary clearance+1.3): 99.7±19.1 ml/min/1.73 m^2
mGFR (iohexol clearance), minimum ([5]; min): 59.9 ml/min/1.73 m^2
mGFR, ml/min, mean ± SD ([5]; study population, Table 1): 99.7 ± 19.1 mL/min
Iohexol clearance-measured GFR [6]: 46.0 mL/min/1.73 m2 and 46.0 ± 15.8 mL/min/1.73 m2
